Data set [1] has as its system mice pretreated with carrageenin (hot-plate response). In words: hot-plate response latency (brass hot-plate, 55° C.) of mice pretreated with carrageenin. To be noted: for Increase in latency (sec) cf. pre-dose control / Latency (sec) pre-dose control: ibuprofen 240, meptazinol 40, combination 240 + 40 mg/kg po; for Latency (sec) pre-dose control: pre-dose baseline of the group, SEM on the line below. It counts as in vivo. As for the experimental part: For example in one method used to measure the antinociceptive effects of meptazinol, ibuprofen and combinations of the two drugs, groups of 9 mice were given 0.025 ml of 2% carrageenin (in saline) sc into the plantar surface of both hind feet 3.0 hours before treatment. The latency to a distinct response following placement of the mice on a brass hot-plate (55° C.) was measured immediately prior to dosing with vehicle (0.5% hydroxypropyl-methylcellulose in water) or with drug.
The antinociceptive response at each recording time (t) was defined as the reaction time of the mouse at time t minus the reaction time at t=0 (immediately prior to dosing).
The results after dosing with vehicle, ibuprofen (240 mg/kg), meptazinol (40 mg/kg) and a combination of ibuprofen (240 mg/kg)+meptazinol (40 mg/kg) are given in Table 1 below: […]

The test system of data set [2] is rats (gastric erosion). The following applies: well known for non-steroidal anti-inflammatory agents; cited from earlier work.
Data set [3] relates to normal mice (tail flick). Kind of data set: tail flick latency (tail immersion in water at 50° C.). The data set is classed as in vivo. As for the experimental part: In a further experiment groups of 10 normal mice were given meptazinol (40 mg/kg), ibuprofen (240 mg/kg), a mixture containing these doses of meptazinol and ibuprofen or the requisite volume of vehicle po immediately after measuring the latency to a distinct tail flick (following tail immersion in water at 50° C.). Tail flick latencies were measured again at 30 min intervals post dosing. As the mean pre-dose latencies of mice subjected to the tail immersion procedure were so similar to one another comparisons of the actual latencies at each recording time were made (Student's "t" test).
(In general: In hot-plate and tail-flick tests a longer latency is read as antinociception.)

A short description of data set [4]: brain concentration of meptazinol after administration of 3H meptazinol alone or with ibuprofen. It counts as in vivo, mice. To be noted: for brain concentration of meptazinol: meptazinol 40 mg/kg po, or meptazinol + ibuprofen 40 + 240. As for the experimental part: In a further experiment the brain concentration of meptazinol was measured after administration of meptazinol alone or a combination of ibuprofen and meptazinol. Groups of mice were given meptazinol (40 mg/kg) alone or meptazinol+ibuprofen (40+240 mg/kg) po containing 25 μCi/mouse of^3 H meptazinol. Six mice from each group were decapitated at 30 min intervals after dosing. The brain of each animal was removed and after the removal of the cerebellum, pons and medulla the remainder was homogenised in 10 ml ice cold Tris buffer. This was immediately centrifuged at 20,000 rpm for 5 min then a single 1 ml aliquot of the supernatant was taken for counting.

For data set [5] the following is noted: rats given 3H meptazinol; previous studies; cited from earlier work.
[6] abbreviates: 30 min post dosing, *p < .02 cf vehicle, x p < .02 cf meptazinol alone.
The mark [7] stands for this setting: 60 min post dosing, *p < .02 cf vehicle.
Setting [8] is: 90 min post dosing, x p < .02 cf meptazinol alone.
The mark [9] stands for this setting: 30 min post dosing, ibuprofen 240, meptazinol 40, combination 40 + 240 mg/kg po, x p < .05 cf meptazinol alone.
Where [10] appears, read: 60 min post dosing, ibuprofen 240, meptazinol 40, combination 40 + 240 mg/kg po, xx p < .01 cf meptazinol alone.
[11] abbreviates: 90 min post dosing, ibuprofen 240, meptazinol 40, combination 40 + 240 mg/kg po.
[12] abbreviates: time 0 (pre-dose), ibuprofen 240, meptazinol 40, combination 40 + 240 mg/kg po, SEM on the line below.

As for `CC(C)Cc1ccc(C(C)C(=O)O)cc1` (stereo not drawn) [Ibuprofen, 2-(4-isobutylphenyl)propionic acid], the “Increase in latency (sec) cf. pre-dose control” value in data set [1] (setting [6]) is -0.72 s; in data set [1] (setting [7]), -1.56 s; in data set [1] (setting [8]), -1.30 s. Further, the antinociceptive response result in data set [1] (ibuprofen 240 mg/kg alone) is “did not produce any antinociceptive response”. Besides, the “Latency (sec) pre-dose control” value in data set [1] was 7.16 s. For the same compound, in data set [2], the gastric damage result is listed as “induce gastric damage”. In addition, the “Latency to a distinct tail flick” value came out at 2.75 s in data set [3] (setting [9]), 3.04 s in data set [3] (setting [10]), 3.94 s in data set [3] (setting [11]) and 3.43 s in data set [3] (setting [12]). Further, the “effect on the tail flick latency” value in data set [3] (ibuprofen alone, 240 mg/kg po) is on record as “did not significantly affect the tail flick latency”.
Turning to `CCC1(c2cccc(O)c2)CCCCN(C)C1` (stereo not drawn) [Meptazinol, m-(3-ethylhexahydro-1-methyl[1H]azepin-3-yl) phenol], the “brain concentration of meptazinol” value in data set [4] (30 min post treatment, **p < .01 cf meptazinol alone, (SEM not stated) on the line below) stood at 18.4 Counts × 1000/min/g brain; in data set [4] (60 min post treatment), 12.0 Counts × 1000/min/g brain; in data set [4] (90 min post treatment, *p < .05 cf meptazinol alone), 7.4 Counts × 1000/min/g brain; in data set [4] (120 min post treatment, **p < .01 cf meptazinol alone) it was 4.7 Counts × 1000/min/g brain. Moreover, in data set [4] (meptazinol 40 mg/kg, 30, 60 and 90 min post dosing), the “concentration of tritium in the brain cf. same dose of meptazinol with 240 mg/kg ibuprofen” value is “approximately half”. The “Increase in latency (sec) cf. pre-dose control” value in data set [1] (setting [6]) turned out to be 4.76 s; in data set [1] (setting [7]), 3.00 s; in data set [1] (setting [8]), 1.76 s. Also, in data set [1], the “Latency (sec) pre-dose control” value was found to be 6.41 s. Further, the “Latency to a distinct tail flick” value was determined as 4.24 s in data set [3] (setting [9]); 6.95 s in data set [3] (30 min post dosing, meptazinol 80 mg/kg po, ***p < .0001 cf vehicle control); 4.85 s in data set [3] (setting [10]); 6.75 s in data set [3] (60 min post dosing, meptazinol 80 mg/kg po, **p < .01); 4.80 s in data set [3] (setting [11]); 6.37 s in data set [3] (90 min post dosing, meptazinol 80 mg/kg po, ***p < .0001 cf vehicle control). Besides, the “Latency to a distinct tail flick” value in data set [3] (setting [12]) stood at 3.43 s; in data set [3] (time 0 (pre-dose), meptazinol 80 mg/kg po) it was 3.54 s. In addition, the “antinociceptive response (tail flick)” value in data set [3] (meptazinol 40 mg/kg alone) is “did induce a significant antinociceptive response”. Further, the “tritium in the brain in the form of meptazinol” value in data set [5] was “virtually all”.

The record behind these values is US4466963A, “Pharmaceutical compositions” (John Wyeth & Brother Limited, priority 1982, dated 1984).
